This passage reports DC50 and Dmax results from patent publication US12448399B2, “Cereblon-based KRAS degrading PROTACs and uses related thereto” (Arvinas Operations, Inc., priority 2023, dated 2025).

Bounds are passed on as bounds.

The assay addresses T1, KRas-G12D (Homo sapiens, UniProt P01116, G12D).
T1 construct: insert the HiBiT tag onto the N-terminus of one or more of the endogenous KRas alleles; host or cells: AsPC-1 HiBiT-KRasG12D knock-in clone (one tagged allele, two untagged KRasG12D alleles)
The experiment in a line: HiBiT Degradation Assay (G12D), AsPC-1 HiBiT-KRasG12D cells, 24 hr. The following applies: for DC50: AsPC-1 cells; for Dmax: ASPC1, AsPC-1 cells, maximum degradation observed. The assay is classed as cell-based. Summed up:
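AsPC-1 cells with CRISPR N-terminal HiBiT knock-in on one endogenous KRasG12D allele, treated 24 hr at 37° C with compound titrations in 0.5% DMSO. Lytic HiBiT luminescence normalized to DMSO, fitted to a 4-parameter model for DC50 and Dmax. Parallel alamar blue (4 hr) checked viability.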

T1 sequence (P01116 1-188 isoform P01116-2 G12D): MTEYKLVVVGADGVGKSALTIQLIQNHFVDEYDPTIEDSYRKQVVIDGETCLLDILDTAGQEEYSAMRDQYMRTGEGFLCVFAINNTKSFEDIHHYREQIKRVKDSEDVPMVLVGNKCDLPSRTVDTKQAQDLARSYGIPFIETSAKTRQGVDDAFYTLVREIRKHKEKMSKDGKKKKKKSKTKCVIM

Take `CCc1cccc2cc(O)cc(-c3ncc4c(N5CC6CCC(C5)N6)nc(OC[C@@H]5C[C@@H](OC6CCN(c7cccc8c7CN(C7CCC(=O)NC7=O)C8=O)CC6)CN5C)nc4c3F)c12` (stereo partly drawn) [Compound 118, 3-[4-(4-{[(3R,5S)-5-{[(4-{3,8-diazabicyclo[3.2.1]octan-3-yl}-7-(8-ethyl-3-hydroxynaphthalen-1-yl)-8-fluoropyrido[4,3-d]pyrimidin-2-yl)oxy]methyl}-1-methylpyrrolidin-3-yl]oxy}piperidin-1-yl)-1-oxo-2,3-dihydro-1H-isoindol-2-yl]piperidine-2,6-dione]: the DC50 is > 1 µM.

On to `C#Cc1c(F)ccc2cc(O)cc(-c3ncc4c(N5CC6CCC(C5)N6)nc(OCCN5CCC6(CC5)CN(CC5(F)CCN(c7ccc8c(c7F)CN(C7CCC(=O)NC7=O)C8=O)CC5)C6)nc4c3F)c12` (centres unmarked) [Compound 119, 3-(5-{4-[(7-{2-[(4-{3,8-diazabicyclo[3.2.1]octan-3-yl}-7-(8-ethynyl-7-fluoro-3-hydroxynaphthalen-1-yl)-8-fluoropyrido[4,3-d]pyrimidin-2-yl)oxy]ethyl}-2,7-diazaspiro[3.5]nonan-2-yl)methyl]-4-fluoropiperidin-1-yl}-4-fluoro-1-oxo-2,3-dihydro-1H-isoindol-2-yl)piperidine-2,6-dione], for which the DC50 was < 5.1 µM.

`C#Cc1c(F)ccc2cc(O)cc(-c3ncc4c(N5CC6CCC(C5)N6)nc(OCCN5CCC6(CC5)CCN(CC5(F)CCN(c7ccc8c(c7F)CN(C7CCC(=O)NC7=O)C8=O)CC5)CC6)nc4c3F)c12` (centres unmarked) [Compound 120, 3-(5-{4-[(9-{2-[(4-{3,8-diazabicyclo[3.2.1]octan-3-yl}-7-(8-ethynyl-7-fluoro-3-hydroxynaphthalen-1-yl)-8-fluoropyrido[4,3-d]pyrimidin-2-yl)oxy]ethyl}-3,9-diazaspiro[5.5]undecan-3-yl)methyl]-4-fluoropiperidin-1-yl}-4-fluoro-1-oxo-2,3-dihydro-1H-isoindol-2-yl)piperidine-2,6-dione]: the Dmax is > 70% and the DC50 was < 5.1 µM.

As for `C#Cc1c(F)ccc2cc(O)cc(-c3ncc4c(N5CC6CCC(C5)N6)nc(OCCN5CCC6(CC5)CCN(CC5CCN(c7ccc8c(c7F)CN(C7CCC(=O)NC7=O)C8=O)CC5)CC6)nc4c3F)c12` (centres unmarked) [Compound 121, 3-[5-[4-[[9-[2-[4-(3,8-diazabicyclo[3.2.1]octan-3-yl)-7-(8-ethynyl-7-fluoro-3-hydroxy-1-naphthyl)-8-fluoro-pyrido[4,3-d]pyrimidin-2-yl]oxyethyl]-3,9-diazaspiro[5.5]undecan-3-yl]methyl]-1-piperidyl]-4-fluoro-1-oxo-isoindolin-2-yl]piperidine-2,6-dione], the Dmax was > 70% and the DC50 was < 5.1 µM.

Turning to `C#Cc1c(F)ccc2cc(O)cc(-c3ncc4c(N5CC6CCC(C5)N6)nc(OC[C@@H]5C[C@@H](OC6CCN(CC7CCN(c8ccc9c(c8F)CN(C8CCC(=O)NC8=O)C9=O)CC7)CC6)CN5C)nc4c3F)c12` (stereo partly drawn) [Compound 122, 3-(5-{4-[(4-{[(3R,5S)-5-{[(4-{3,8-diazabicyclo[3.2.1]octan-3-yl}-7-(8-ethynyl-7-fluoro-3-hydroxynaphthalen-1-yl)-8-fluoropyrido[4,3-d]pyrimidin-2-yl)oxy]methyl}-1-methylpyrrolidin-3-yl]oxy}piperidin-1-yl)methyl]piperidin-1-yl}-4-fluoro-1-oxo-2,3-dihydro-1H-isoindol-2-yl)piperidine-2,6-dione], the Dmax was > 70% and the DC50 is < 5.1 µM.

For the compound `C#Cc1c(F)ccc2cc(O)cc(-c3ncc4c(N5CC6CCC(C5)N6)nc(OCCN5CCC(CC6CCN(CC7CCN(c8ccc(F)c9c8CN(C8CCC(=O)NC8=O)C9=O)CC7)CC6)CC5)nc4c3F)c12` (centres unmarked) [Compound 123], the Dmax was > 70% and the DC50 was < 5.1 µM.

In the case of `C#Cc1c(F)ccc2cc(O)cc(-c3ncc4c(N5CC6CCC(C5)N6)nc(OCCN5CCC(F)(CC6CCN(CC7CCN(c8cccc9c8CN(C8CCC(=O)NC8=O)C9=O)CC7)CC6)CC5)nc4c3F)c12` (centres unmarked) [Compound 124, 3-{4-[4-({4-[(1-{2-[(4-{3,8-diazabicyclo[3.2.1]octan-3-yl}-7-(8-ethynyl-7-fluoro-3-hydroxynaphthalen-1-yl)-8-fluoropyrido[4,3-d]pyrimidin-2-yl)oxy]ethyl}-4-fluoropiperidin-4-yl)methyl]piperidin-1-yl}methyl)piperidin-1-yl]-1-oxo-2,3-dihydro-1H-isoindol-2-yl}piperidine-2,6-dione], the greatest degradation seen (Dmax) is > 70% and the half-maximal degradation concentration (DC50) is < 5.1 µM.

As for `C#Cc1c(F)ccc2cc(O)cc(-c3ncc4c(N5CC6CCC(C5)N6)nc(OCCN5CCC(CC6CCN(CC7(F)CCN(c8cccc9c8CN(C8CCC(=O)NC8=O)C9=O)CC7)CC6)CC5)nc4c3F)c12` (centres unmarked) [Compound 125, 3-{4-[4-({4-[(1-{2-[(4-{3,8-diazabicyclo[3.2.1]octan-3-yl}-7-(8-ethynyl-7-fluoro-3-hydroxynaphthalen-1-yl)-8-fluoropyrido[4,3-d]pyrimidin-2-yl)oxy]ethyl}piperidin-4-yl)methyl]piperidin-1-yl}methyl)-4-fluoropiperidin-1-yl]-1-oxo-2,3-dihydro-1H-isoindol-2-yl}piperidine-2,6-dione], the DC50 was < 5.1 µM.

For the compound `C#Cc1c(F)ccc2cc(O)cc(-c3ncc4c(N5CC6CCC(C5)N6)nc(OCCN5CCC(CN6CCC(CC7CCN(c8cccc9c8CN(C8CCC(=O)NC8=O)C9=O)CC7)CC6)CC5)nc4c3F)c12` (centres unmarked) [Compound 126, 3-{4-[4-({1-[(1-{2-[(4-{3,8-diazabicyclo[3.2.1]octan-3-yl}-7-(8-ethynyl-7-fluoro-3-hydroxynaphthalen-1-yl)-8-fluoropyrido[4,3-d]pyrimidin-2-yl)oxy]ethyl}piperidin-4-yl)methyl]piperidin-4-yl}methyl)piperidin-1-yl]-1-oxo-2,3-dihydro-1H-isoindol-2-yl}piperidine-2,6-dione], the Dmax is > 70% and the DC50 was < 5.1 µM.

For the compound `C#Cc1c(F)ccc2cc(O)cc(-c3nc(N4CC5CCC(C4)N5)c4cnc(OCCN5CCC6(CC5)CN(CC5CCN(c7ccc8c(c7F)CN(C7CCC(=O)NC7=O)C8=O)CC5)C6)nc4c3F)c12` (centres unmarked) [Compound 127], the DC50 was < 5.1 µM.

Consider `C#Cc1c(F)ccc2cc(O)cc(-c3ncc4c(N5CC6CCC(C5)N6)nc(OCCN5CCC(CCC6CCN(c7cccc8c7CN(C7CCC(=O)NC7=O)C8=O)CC6)CC5)nc4c3F)c12` (centres unmarked) [Compound 128, 3-(4-{4-[2-(1-{2-[(4-{3,8-diazabicyclo[3.2.1]octan-3-yl}-7-(8-ethynyl-7-fluoro-3-hydroxynaphthalen-1-yl)-8-fluoropyrido[4,3-d]pyrimidin-2-yl)oxy]ethyl}piperidin-4-yl)ethyl]piperidin-1-yl}-1-oxo-2,3-dihydro-1H-isoindol-2-yl)piperidine-2,6-dione], for which the Dmax is > 70% and the DC50 lay in the range of 0.1 to 5.25 µM.

Turning to `C#Cc1c(F)ccc2cc(O)cc(-c3ncc4c(N5CC6CCC(C5)N6)nc(OCCN5CCC(CC6CCN(c7cccc8c7n(C)c(=O)n8C7CCC(=O)NC7=O)CC6)CC5)nc4c3F)c12` (centres unmarked) [Compound 129, 3-(4-{4-[(1-{2-[(4-{3,8-diazabicyclo[3.2.1]octan-3-yl}-7-(8-ethynyl-7-fluoro-3-hydroxynaphthalen-1-yl)-8-fluoropyrido[4,3-d]pyrimidin-2-yl)oxy]ethyl}piperidin-4-yl)methyl]piperidin-1-yl}-3-methyl-2-oxo-2,3-dihydro-1H-1,3-benzodiazol-1-yl)piperidine-2,6-dione], the Dmax is > 70% and the DC50 is < 5.1 µM.

Turning to `C#Cc1c(F)ccc2cc(O)cc(-c3ncc4c(N5CC6CCC(C5)N6)nc(OCCN5CCC(CC6CCN(CC7CCN(c8cc(F)cc9c8CN(C8CCC(=O)NC8=O)C9=O)CC7)CC6)CC5)nc4c3F)c12` (centres unmarked) [Compound 130, 3-{4-[4-({4-[(1-{2-[(4-{3,8-diazabicyclo[3.2.1]octan-3-yl}-7-(8-ethynyl-7-fluoro-3-hydroxynaphthalen-1-yl)-8-fluoropyrido[4,3-d]pyrimidin-2-yl)oxy]ethyl}piperidin-4-yl)methyl]piperidin-1-yl}methyl)piperidin-1-yl]-6-fluoro-1-oxo-2,3-dihydro-1H-isoindol-2-yl}piperidine-2,6-dione], the Dmax was > 70% and the DC50 is < 5.1 µM.

As to `C#Cc1c(F)ccc2cc(O)cc(-c3ncc4c(N5CC6CCC(C5)N6)nc(OCCN5CCC(CC6(F)CCN(CC7CCN(c8cccc9c8CN(C8CCC(=O)NC8=O)C9=O)CC7)CC6)CC5)nc4c3F)c12` (centres unmarked) [Compound 131, 3-{4-[4-({4-[(1-{2-[(4-{3,8-diazabicyclo[3.2.1]octan-3-yl}-7-(8-ethynyl-7-fluoro-3-hydroxynaphthalen-1-yl)-8-fluoropyrido[4,3-d]pyrimidin-2-yl)oxy]ethyl}piperidin-4-yl)methyl]-4-fluoropiperidin-1-yl}methyl)piperidin-1-yl]-1-oxo-2,3-dihydro-1H-isoindol-2-yl}piperidine-2,6-dione], the Dmax is > 70% and the DC50 was < 5.1 µM.

Consider `C#Cc1c(F)ccc2cc(O)cc(-c3ncc4c(N5CC6CCC(C5)N6)nc(OCCN5CCC6(CC5)CCN(CC5CCN(c7cccc8c7CN(C7CCC(=O)NC7=O)C8=O)CC5)CC6)nc4c3F)c12` (centres unmarked) [Compound 132, 3-(4-{4-[(9-{2-[(4-{3,8-diazabicyclo[3.2.1]octan-3-yl}-7-(8-ethynyl-7-fluoro-3-hydroxynaphthalen-1-yl)-8-fluoropyrido[4,3-d]pyrimidin-2-yl)oxy]ethyl}-3,9-diazaspiro[5.5]undecan-3-yl)methyl]piperidin-1-yl}-1-oxo-2,3-dihydro-1H-isoindol-2-yl)piperidine-2,6-dione], for which the Dmax was > 70% and the half-maximal degradation concentration (DC50) is < 5.1 µM.
